Measurements as given in US20210000783A1, “USE OF EXTRACT OF VEGETATION WATERS FOR TREATING DAMAGE TO THE CARDIOVASCULAR SYSTEM” (FATTORIA LA VIALLA DI GIANNI, ANTONIO E BANDINO LO FRANCO - …, priority 2017, published 2021).

System: zebrafish (Danio rerio) embryos
Experiment: Heart rate of zebrafish embryos with doxorubicin-induced cardiotoxicity
Type: in vivo
Details: doxorubicin alone 3 μg/ml
Experimental: (§1) The embryos were treated with the polyphenol concentrate of the present invention (sample A009), at the dilutions 1:100 and 1:500, alone or in association with Doxorubicin (3 μg/mL). A pre-treatment was performed with A009, followed by administration of Doxorubicin and A009+Doxorubicin co-treatment. NT=not-treated cells. ^∘∘∘=p<0.0001 with respect to not-treated embryos; ***=p<0.001 with respect to embryos treated with doxorubicin alone;
as §1, with “alone.” for “alone;”
To evaluate the cardioprotective effect of the polyphenol concentrate of the invention, the zebrafish was used in vivo as the animal model to study. In particular the experiments were performed on zebrafish (Danio rerio) embryos incubated for 24, 48 and 72 hours after fertilization. […]

COc1cccc2c1C(=O)c1c(O)c3c(c(O)c1C2=O)C[C@@](O)(C(=O)CO)C[C@@H]3O[C@H]1C[C@H](N)[C@H](O)[C@H](C)O1 [doxorubicin]
heart rate of zebrafish embryos (48 hours, FIG. 2): significantly reduces their heart rate
heart rate of zebrafish embryos (72 hours, FIG. 3): significantly reduces their heart rate
